Results on 24 compounds are retold here after patent publication US9963456B2, “Pyrrolopyrimidine compound or salt thereof and compositions containing the pyrrolopyrimidine compound or salt thereof” (TAIHO PHARMACEUTICAL CO., LTD., priority 2014, dated 2018).

The structures appear in SMILES notation.

The target of this test is NAE (heterodimer of APPBP1 and UBA3) (Homo sapiens (Human), UniProt Q8TBC4). Nature of the test: Nedd8 conjugation inhibitory activity (AlphaScreen assay). Conditions: purified NAE, GST-UBC12, Biotin-Nedd8, ATP. The test is classed as biochemical. (Bead proximity is the source of the signal in Alpha formats.)
NAE (heterodimer of APPBP1 and UBA3), sequence (Q8TBC4 whole entry): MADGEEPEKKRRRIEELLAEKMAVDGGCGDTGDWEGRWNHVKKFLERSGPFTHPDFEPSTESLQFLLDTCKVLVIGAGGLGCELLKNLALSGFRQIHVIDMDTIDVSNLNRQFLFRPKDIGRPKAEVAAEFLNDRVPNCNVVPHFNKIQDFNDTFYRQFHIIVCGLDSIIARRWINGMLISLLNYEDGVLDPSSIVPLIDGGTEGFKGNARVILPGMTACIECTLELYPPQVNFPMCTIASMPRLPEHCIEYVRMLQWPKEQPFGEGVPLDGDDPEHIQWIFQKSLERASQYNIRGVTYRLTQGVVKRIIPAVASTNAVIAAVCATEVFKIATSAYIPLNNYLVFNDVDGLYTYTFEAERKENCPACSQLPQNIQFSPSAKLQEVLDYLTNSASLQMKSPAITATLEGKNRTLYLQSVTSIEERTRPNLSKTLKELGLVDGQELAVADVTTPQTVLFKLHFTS
NAE (heterodimer of APPBP1 and UBA3), sequence (Q13564 whole entry partner): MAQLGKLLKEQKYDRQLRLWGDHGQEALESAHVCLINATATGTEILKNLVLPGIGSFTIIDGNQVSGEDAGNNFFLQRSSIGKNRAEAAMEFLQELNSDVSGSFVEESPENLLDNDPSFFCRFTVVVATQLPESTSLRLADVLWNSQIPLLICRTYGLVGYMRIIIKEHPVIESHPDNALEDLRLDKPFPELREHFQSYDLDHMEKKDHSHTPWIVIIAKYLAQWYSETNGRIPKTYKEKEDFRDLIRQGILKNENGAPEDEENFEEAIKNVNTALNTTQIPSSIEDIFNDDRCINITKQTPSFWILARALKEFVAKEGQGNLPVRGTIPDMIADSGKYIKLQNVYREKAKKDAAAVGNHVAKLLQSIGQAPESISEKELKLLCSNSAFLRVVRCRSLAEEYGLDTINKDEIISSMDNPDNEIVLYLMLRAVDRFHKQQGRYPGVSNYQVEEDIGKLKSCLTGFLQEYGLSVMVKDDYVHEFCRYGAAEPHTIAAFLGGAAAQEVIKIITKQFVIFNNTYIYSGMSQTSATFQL

The term IC50 denotes the point on the concentration scale where inhibition reaches its midpoint. Low readings indicate greater potency in that assay, high ones weaker potency in that assay. As to `Nc1ncnc2c1c(C#Cc1ccnc3ccccc13)cn2[C@@H]1O[C@H](CNS(N)(=O)=O)[C@@H](O)[C@H]1O` [Example 8, 4-[2-[4-Amino-7-[(2R,3R,4S,5R)-3,4-dihydroxy-5-[(sulfamoylamino)methyl]tetrahydrofuran-2-yl]pyrrolo[2,3-d]pyrimidin-5-yl]ethynyl]quinoline], the IC50 turned out to be 0.029 µM. The value for `Nc1ncnc2c1c(C#Cc1nccc3ccccc13)cn2[C@@H]1O[C@H](CNS(N)(=O)=O)[C@@H](O)[C@H]1O` [Example 11, 1-[2-[4-Amino-7-[(2R,3R,4S,5R)-3,4-dihydroxy-5-[(sulfamoylamino)methyl]tetrahydrofuran-2-yl]pyrrolo[2,3-d]pyrimidin-5-yl]ethynyl]isoquinoline] was 0.0078 µM; that for `COc1cccc(OC)c1C#Cc1cn([C@@H]2O[C@H](CNS(N)(=O)=O)[C@@H](O)[C@H]2O)c2ncnc(N)c12` [Example 16, 4-Amino-7-[(2R,3R,4S,5R)-3,4-dihydroxy-5-[(sulfamoylamino)methyl]tetrahydrofuran-2-yl]-5-[2-(2,6-dimethoxyphenyl)ethynyl]pyrrolo[2,3-d]pyrimidine] was 0.0096 µM. The value for `Nc1ncnc2c1c(C#Cc1cccc3cccnc13)cn2[C@@H]1O[C@H](CNS(N)(=O)=O)[C@@H](O)[C@H]1O` [Example 17, 8-[2-[4-Amino-7-[(2R,3R,4S,5R)-3,4-dihydroxy-5-[(sulfamoylamino)methyl]tetrahydrofuran-2-yl]pyrrolo[2,3-d]pyrimidin-5-yl]ethynyl]quinoline] was 0.0054 µM. `Nc1ncnc2c1c(C#Cc1ccccc1OC(F)F)cn2[C@@H]1O[C@H](CNS(N)(=O)=O)[C@@H](O)[C@H]1O` [Example 18, 4-Amino-5-[2-[2-(difluoromethoxy)phenyl]ethynyl]-7-[(2R,3R,4S,5R)-3,4-dihydroxy-5-[(sulfamoylamino)methyl]tetrahydrofuran-2-yl]pyrrolo[2,3-d]pyrimidine] yielded a half-inhibitory concentration (IC50) of 0.027 µM. The result for `Nc1ncnc2c1c(C#Cc1ccc3[nH]ncc3n1)cn2[C@@H]1O[C@H](CNS(N)(=O)=O)[C@@H](O)[C@H]1O` [Example 19, 4-Amino-7-[(2R,3R,4S,5R)-3,4-dihydroxy-5-[(sulfamoylamino)methyl]tetrahydrofuran-2-yl]-5-[2-(1H-pyrazolo[4,3-b]pyridin-5-yl)ethynyl]pyrrolo[2,3-d]pyrimidine] reads 0.028 µM. In turn, `Nc1ccc(C#Cc2cn([C@@H]3O[C@H](CNS(N)(=O)=O)[C@@H](O)[C@H]3O)c3ncnc(N)c23)c(F)c1` [Example 20, 4-Amino-5-[2-(4-amino-2-fluoro-phenyl)ethynyl]-7-[(2R,3R,4S,5R)-3,4-dihydroxy-5-[(sulfamoylamino)methyl]tetrahydrofuran-2-yl]pyrrolo[2,3-d]pyrimidine] registered a 50% inhibitory concentration (IC50) of 0.0091 µM. The result for `Nc1ncnc2c1c(C#CC1CCc3ccccc31)cn2[C@@H]1O[C@H](CNS(N)(=O)=O)[C@@H](O)[C@H]1O` (stereo partly drawn) [Example 21, 4-Amino-7-[(2R,3R,4S,5R)-3,4-dihydroxy-5-[(sulfamoylamino)methyl]tetrahydrofuran-2-yl]-5-(2-indan-1-ylethynyl)pyrrolo[2,3-d]pyrimidine] reads 0.015 µM; that for `CCNc1cc(F)c(C#Cc2cn([C@@H]3O[C@H](CNS(N)(=O)=O)[C@@H](O)[C@H]3O)c3ncnc(N)c23)c(F)c1` [Example 26, 4-Amino-7-[(2R,3R,4S,5R)-3,4-dihydroxy-5-[(sulfamoylamino)methyl]tetrahydrofuran-2-yl]-5-[2-[4-(ethylamino)-2,6-difluoro-phenyl]ethynyl]pyrrolo[2,3-d]pyrimidine], 0.012 µM.

The compound `Nc1ncnc2c1c(C#Cc1c(F)cc(N3CC[C@@H](O)C3)cc1F)cn2[C@@H]1O[C@H](CNS(N)(=O)=O)[C@@H](O)[C@H]1O` [Example 30, 4-Amino-5-[2-[2,6-difluoro-4-[(3R)-3-hydroxypyrrolidin-1-yl]phenyl]ethynyl]-7-[(2R,3R,4S,5R)-3,4-dihydroxy-5-[(sulfamoylamino)methyl]tetrahydrofuran-2-yl]pyrrolo[2,3-d]pyrimidine] showed an IC50 of 0.027 µM. The result for `CCOc1cc(N2CCOCC2)cc(F)c1C#Cc1cn([C@@H]2O[C@H](CNS(N)(=O)=O)[C@@H](O)[C@H]2O)c2ncnc(N)c12` [Example 34, 4-[4-[2-[4-Amino-7-[(2R,3R,4S,5R)-3,4-dihydroxy-5-[(sulfamoylamino)methyl]tetrahydrofuran-2-yl]pyrrolo[2,3-d]pyrimidin-5-yl]ethynyl]-3-ethoxy-5-fluoro-phenyl]morpholine] reads 0.024 µM; that for `CCOc1cc(F)cc(F)c1C#Cc1cn([C@@H]2O[C@H](CNS(N)(=O)=O)[C@@H](O)[C@H]2O)c2ncnc(N)c12` [Example 35, 4-Amino-7-[(2R,3R,4S,5R)-3,4-dihydroxy-5-[(sulfamoylamino)methyl]tetrahydrofuran-2-yl]-5-[2-(2-ethoxy-4,6-difluoro-phenyl)ethynyl]pyrrolo[2,3-d]pyrimidine], 0.0041 µM; that for `Nc1ncnc2c1c(C#Cc1c(F)cc(N3CCSCC3)cc1F)cn2[C@@H]1O[C@H](CNS(N)(=O)=O)[C@@H](O)[C@H]1O` [Example 37, 4-[4-[2-[4-Amino-7-[(2R,3R,4S,5R)-3,4-dihydroxy-5-[(sulfamoylamino)methyl]tetrahydrofuran-2-yl]pyrrolo[2,3-d]pyrimidin-5-yl]ethynyl]-3,5-difluoro-phenyl]thiomorpholine], 0.011 µM. For `Nc1ncnc2c1c(C#Cc1c(F)cc(N3CCCC(O)C3)cc1F)cn2[C@@H]1O[C@H](CNS(N)(=O)=O)[C@@H](O)[C@H]1O` (stereo partly drawn) [Example 38, 4-Amino-5-[2-[2,6-difluoro-4-(3-hydroxy-1-piperidyl)phenyl]ethynyl]-7-[(2R,3R,4S,5R)-3,4-dihydroxy-5-[(sulfamoylamino)methyl]tetrahydrofuran-2-yl]pyrrolo[2,3-d]pyrimidine], 0.0035 µM corresponded to half-maximal inhibition (IC50). This IC50 lies about 3.1-fold lower than the previous one.

As to `Nc1ncnc2c1c(C#Cc1c(F)cc(N3CCC(=O)CC3)cc1F)cn2[C@@H]1O[C@H](CNS(N)(=O)=O)[C@@H](O)[C@H]1O` [Example 42, 4-Amino-5-[2-[2,6-difluoro-4-(4-oxo-1-piperidyl)phenyl]ethynyl]-7-[(2R,3R,4S,5R)-3,4-dihydroxy-5-[(sulfamoylamino)methyl]tetrahydrofuran-2-yl]pyrrolo[2,3-d]pyrimidine], half-maximal inhibition (IC50) required 0.0043 µM. The result for `Nc1ncnc2c1c(C#Cc1ccccn1)cn2[C@@H]1O[C@H](CNS(N)(=O)=O)[C@@H](O)[C@H]1O` [Example 44, 4-Amino-7-[(2R,3R,4S,5R)-3,4-dihydroxy-5-[(sulfamoylamino)methyl]tetrahydrofuran-2-yl]-5-[2-(2-pyridyl)ethynyl]pyrrolo[2,3-d]pyrimidine] reads 0.029 µM; that for `N#Cc1ccccc1C#Cc1cn([C@@H]2O[C@H](CNS(N)(=O)=O)[C@@H](O)[C@H]2O)c2ncnc(N)c12` [Example 49, 4-Amino-5-[2-(2-cyanophenyl)ethynyl]-7-[(2R,3R,4S,5R)-3,4-dihydroxy-5-[(sulfamoylamino)methyl]tetrahydrofuran-2-yl]pyrrolo[2,3-d]pyrimidine], 0.018 µM. The value for `COc1cccc(F)c1C#Cc1cn([C@@H]2O[C@H](CNS(N)(=O)=O)[C@@H](O)[C@H]2O)c2ncnc(N)c12` [Example 51, 4-Amino-7-[(2R,3R,4S,5R)-3,4-dihydroxy-5-[(sulfamoylamino)methyl]tetrahydrofuran-2-yl]-5-[2-(2-fluoro-6-methoxy-phenyl)ethynyl]pyrrolo[2,3-d]pyrimidine] was 0.0035 µM; that for `Nc1ncnc2c1c(C#Cc1c(F)cc(O)cc1F)cn2[C@@H]1O[C@H](CNS(N)(=O)=O)[C@@H](O)[C@H]1O` [Example 54, 4-Amino-5-[2-(2,6-difluoro-4-hydroxy-phenyl)ethynyl]-7-[(2R,3R,4S,5R)-3,4-dihydroxy-5-[(sulfamoylamino)methyl]tetrahydrofuran-2-yl]pyrrolo[2,3-d]pyrimidine] was 0.0045 µM. The value for `CC(C)Oc1cccc(F)c1C#Cc1cn([C@@H]2O[C@H](CNS(N)(=O)=O)[C@@H](O)[C@H]2O)c2ncnc(N)c12` [Example 56, 4-Amino-7-[(2R,3R,4S,5R)-3,4-dihydroxy-5-[(sulfamoylamino)methyl]tetrahydrofuran-2-yl]-5-[2-(2-fluoro-6-isopropoxy-phenyl)ethynyl]pyrrolo[2,3-d]pyrimidine] was 0.0053 µM. As for `N#Cc1cc(F)c(C#Cc2cn([C@@H]3O[C@H](CNS(N)(=O)=O)[C@@H](O)[C@H]3O)c3ncnc(N)c23)c(F)c1` [Example 57, 4-Amino-5-[2-(4-cyano-2,6-difluoro-phenyl)ethynyl]-7-[(2R,3R,4S,5R)-3,4-dihydroxy-5-[(sulfamoylamino)methyl]tetrahydrofuran-2-yl]pyrrolo[2,3-d]pyrimidine], it took 0.0058 µM to reach half-maximal inhibition (IC50). The value for `CSc1cccc(F)c1C#Cc1cn([C@@H]2O[C@H](CNS(N)(=O)=O)[C@@H](O)[C@H]2O)c2ncnc(N)c12` [Example 59, 4-Amino-7-[(2R,3R,4S,5R)-3,4-dihydroxy-5-[(sulfamoylamino)methyl]tetrahydrofuran-2-yl]-5-[2-(2-fluoro-6-methylsulfanyl-phenyl)ethynyl]pyrrolo[2,3-d]pyrimidine] was 0.0085 µM; that for `Nc1ncnc2c1c(C#Cc1c(F)cccc1OCC(F)(F)F)cn2[C@@H]1O[C@H](CNS(N)(=O)=O)[C@@H](O)[C@H]1O` [Example 61, 4-Amino-7-[(2R,3R,4S,5R)-3,4-dihydroxy-5-[(sulfamoylamino)methyl]tetrahydrofuran-2-yl]-5-[2-[2-fluoro-6-(2,2,2-trifluoroethoxy)phenyl]ethynyl]pyrrolo[2,3-d]pyrimidine] was 0.0038 µM; that for `CCOc1cccc(OC)c1C#Cc1cn([C@@H]2O[C@H](CNS(N)(=O)=O)[C@@H](O)[C@H]2O)c2ncnc(N)c12` [Example 62, 4-Amino-7-[(2R,3R,4S,5R)-3,4-dihydroxy-5-[(sulfamoylamino)methyl]tetrahydrofuran-2-yl]-5-[2-(2-ethoxy-6-methoxy-phenyl)ethynyl]pyrrolo[2,3-d]pyrimidine] was 0.016 µM.
